The target in one test is hCA XII (Homo sapiens, UniProt O43570). Put plainly: stopped flow CO2 hydrase assay, hCA XII.
Another test addresses hCA IX (Homo sapiens, UniProt Q16790). Put plainly: stopped flow CO2 hydrase assay, hCA IX.
For the next test, the target named is hCA II (Homo sapiens, UniProt P00918). Put plainly: stopped flow CO2 hydrase assay, hCA II.
The next test addresses hCA I (Homo sapiens, UniProt P00915). Put plainly: stopped flow CO2 hydrase assay, hCA I.

As usually defined, the pKi is −log10 of the Ki, conventionally taken in molar units. A low value points to a large Ki.

SMILES strings stand for the structures. pKi: −log10 of the molar value.

hCA XII, sequence (O43570 25-354): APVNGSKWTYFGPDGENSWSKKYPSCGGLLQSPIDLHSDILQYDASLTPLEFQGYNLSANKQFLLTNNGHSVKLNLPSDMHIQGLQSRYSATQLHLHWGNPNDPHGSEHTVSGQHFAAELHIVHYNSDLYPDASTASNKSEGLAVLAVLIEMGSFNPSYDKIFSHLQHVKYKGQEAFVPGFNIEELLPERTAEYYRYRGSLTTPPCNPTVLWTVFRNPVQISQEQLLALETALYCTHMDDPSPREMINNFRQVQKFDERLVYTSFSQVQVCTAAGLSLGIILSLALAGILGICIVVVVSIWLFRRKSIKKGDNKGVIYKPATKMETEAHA
hCA I, sequence (P00915 whole entry): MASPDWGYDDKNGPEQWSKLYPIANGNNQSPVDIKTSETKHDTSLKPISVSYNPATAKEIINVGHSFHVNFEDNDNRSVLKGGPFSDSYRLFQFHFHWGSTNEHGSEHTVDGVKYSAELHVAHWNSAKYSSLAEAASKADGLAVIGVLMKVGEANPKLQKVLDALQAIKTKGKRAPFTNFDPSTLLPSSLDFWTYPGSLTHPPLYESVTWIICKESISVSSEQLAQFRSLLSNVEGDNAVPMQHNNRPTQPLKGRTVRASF
Experimental for hCA II: (§1) The tested CA panel was comprised of the two ubiquitously expressed cytosolic hCA I and II isoforms, along with the two tumor-related transmembrane hCA IX and XII isoforms. The activity of the synthesized hybrids was reported as Ki (inhibition constant) to assess their binding affinity. […] The inhibitor and enzyme solutions were first preincubated together for 15 min at room temperature to enable for the generation of the E–I complex. Photophysics stopped-flow instrument was used to measure the CA-catalyzed CO2 hydration activity. Phenol red (at a concentration of 0.2 mM) was added as an indicator after a period of 10–100 s in the CA-catalyzed CO2 hydration reaction at an absorbance maximum of 557 nm, with 20 mM Hepes (pH = 7.4) and 10 mM NaClO4 (to maintain constant ionic strength) [30]. […] In the initial 5–10% of the reaction, at least six traces were examined to determine the initial velocity for each inhibitor. Similarly, the total measured rates were used to measure the uncatalyzed rates [32]. Distilled–deionized water was used in the preparation of the Stock inhibitor solutions (10 mM), as well as dilutions up to 0.01 nM. The inhibition constants were measured utilizing PRISM 3, whereas the Lineweaver–Burk plots were used to measure the kinetic parameters which comprised the mean of at least three separate measurements [33, 34].
Experimental for hCA IX: as §1
Experimental for hCA XII: as §1

Regarding `NS(=O)(=O)c1cccc(NC(=O)CCc2c[nH]c3ccccc23)c1` [Compound 2a, 3-(1H-indol-3-yl)-N-(3-sulfamoylphenyl)propanamide], the negative logarithm of the Ki (pKi) on hCA XII is 7.27; at hCA IX, 6.69; on hCA II, 8.23; on hCA I, 7.10. For the same compound, the “selectivity for hCA II over hCA I” value at hCA II (ratio of Ki values) worked out at 13 fold. The “selectivity for hCA II over hCA IX” value at hCA II (ratio of Ki values) stood at 34 fold. Moreover, on hCA II (ratio of Ki values), the “selectivity for hCA II over hCA XII” value came to 9 fold.
Turning to `NS(=O)(=O)c1ccc(O)c(NC(=O)CCc2c[nH]c3ccccc23)c1` [Compound 2b, N-(2-hydroxy-5-sulfamoylphenyl)-3-(1H-indol-3-yl)propanamide], the negative logarithm of the Ki (pKi) is 7.07 on hCA XII, 6.54 on hCA IX, 8.14 on hCA II and 5.55 at hCA I.
On to `NS(=O)(=O)c1ccc(CCNC(=O)CCc2c[nH]c3ccccc23)cc1` [Compound 2c, 3-(1H-indol-3-yl)-N-(4-sulfamoylphenethyl)propanamide], for which the negative logarithm of the Ki (pKi) on hCA XII is 7.43; on hCA IX, 6.65; at hCA II, 8.05; on hCA I it was 6.66.
On the same counts, the results for `NS(=O)(=O)c1ccc(NC(=O)CCc2c[nH]c3ccccc23)cc1` [Compound 2d, 3-(1H-indol-3-yl)-N-(4-sulfamoylphenyl)propanamide] are 7.37, 6.78, 8.15 and 7.01.
On the same counts, the results for `NS(=O)(=O)c1cccc(NC(=O)c2ccc3[nH]ccc3c2)c1` [Compound 2e, N-(3-sulfamoylphenyl)-1H-indole-5-carboxamide] are 7.04, 6.12, 7.34 and 5.25.
Take `NS(=O)(=O)c1ccc(NC(=O)c2ccc3[nH]ccc3c2)cc1` [Compound 2f, N-(4-sulfamoylphenyl)-1H-indole-5-carboxamide]: the pKi at hCA XII is 6.59; on hCA IX, 6.78; at hCA II it was 7.80; at hCA I, 5.51.
With `NS(=O)(=O)c1ccc(O)c(NC(=O)c2ccc3[nH]ccc3c2)c1` [Compound 2g, N-(2-hydroxy-5-sulfamoylphenyl)-1H-indole-5-carboxamide], the pKi at hCA XII is 7.07; on hCA IX, 6.55; on hCA II, 6.17; on hCA I, 5.32.
The corresponding values for `NS(=O)(=O)c1ccc(CCNC(=O)c2ccc3[nH]ccc3c2)cc1` [Compound 2h, N-(4-sulfamoylphenethyl)-1H-indole-5-carboxamide] are 6.63, 6.62, 8.07 and 6.26.
On the same counts, the results for `NS(=O)(=O)c1ccccc1NC(=O)c1ccc2[nH]ccc2c1` [Compound 2i, N-(2-sulfamoylphenyl)-1H-indole-5-carboxamide] are 7.05, 6.20, 7.14 and 5.13.
For `NS(=O)(=O)c1cccc(NC(=O)c2ccc3cc[nH]c3c2)c1` [Compound 2j, N-(3-sulfamoylphenyl)-1H-indole-6-carboxamide], the pKi was 7.39 on hCA XII, 6.18 at hCA IX, 7.02 on hCA II and 5.27 on hCA I.
On the same counts, the results for `NS(=O)(=O)c1ccc(NC(=O)c2ccc3cc[nH]c3c2)cc1` [Compound 2k, N-(4-sulfamoylphenyl)-1H-indole-6-carboxamide] are 7.08, 6.37, 6.08 and 5.33.
On the same counts, the results for `NS(=O)(=O)c1ccc(O)c(NC(=O)c2ccc3cc[nH]c3c2)c1` [Compound 2l, N-(2-hydroxy-5-sulfamoylphenyl)-1H-indole-6-carboxamide] are 7.13, 6.37, 6.17 and 5.37.
The corresponding values for `NS(=O)(=O)c1ccc(CCNC(=O)c2ccc3cc[nH]c3c2)cc1` [Compound 2m, N-(4-sulfamoylphenethyl)-1H-indole-6-carboxamide] are 7.07, 6.56, 7.41 and 6.60.
For the compound `NS(=O)(=O)c1ccccc1NC(=O)c1ccc2cc[nH]c2c1` [Compound 2n, N-(2-sulfamoylphenyl)-1H-indole-6-carboxamide], the pKi on hCA XII is 7.43; at hCA IX, 6.31; on hCA II, 6.17; at hCA I, 5.12.
On the same counts, the results for `NS(=O)(=O)c1ccc(C(=O)Nc2ccc3[nH]ccc3c2)cc1` [Compound 2o, N-(1H-indol-5-yl)-4-sulfamoylbenzamide] are 7.17, 6.77, 8.12 and 7.25.

Source of the values: article PMC8910009, “Identification of Novel and Potent Indole-Based Benzenesulfonamides as Selective Human Carbonic Anhydrase II Inhibitors: Design, Synthesis, In Vitro, and In Silico Studies” (International Journal of Molecular Sciences, 2022).
